A short description of the series: gradient 5% acetonitrile 3 min, to 50% in 2 min, to 85% in 15 min, held 3 min, 100 µL/min. The settings on record: column: Zorbax Extend-C18 2.1 x 50 mm; eluents: water / acetonitrile, 0.1% formic acid. In a few lines: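 Over 3 months, pure standards in mixtures of ~100 molecules were run by HPLC coupled to a quadrupole time-of-flight mass spectrometer in positive and negative ionization mode. The column was a Zorbax Extend-C18 (2.1 × 50 mm, 1.8 μm) at 100 μL/min, eluted with water and acetonitrile each holding 0.1% formic acid, with 40 μL dead and 900 μL dwell volumes. Retention time was determined from adduct peaks chosen by software and checked manually.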
Consider `Cc1ccc(Cl)cc1N1C(=O)CN(S(C)(=O)=O)CC1(C)C(=O)NC1CCCCC1` (stereo not given), for which the RP-LC retention time was found to be 880 s.

The compound `CCC1Oc2ccc(S(=O)(=O)N3CCC(C(=O)Nc4ccccc4)CC3)cc2NC1=O` (stereo not given) gave an RP-LC retention time of 794 s.

The compound `CCOc1ccc(C(=O)NC2(c3nc(C(C)C)no3)CCCCC2)cc1OCC` displayed an RP-LC retention time of 1060 s.

For the compound `Cc1cc(C)c(NC(=O)Cn2cnc3onc(C)c3c2=O)c(C)c1`, the RP-LC retention time was 764 s.

The compound `O=C([C@@H]1C[C@H](F)CN1S(=O)(=O)c1ccc(F)cc1F)N1CCOCC1` gave an RP-LC retention time of 692 s.

As to `COc1ccc(OC)c(S(=O)(=O)N2CCC(c3noc(-c4ccccc4C)n3)CC2)c1`, the RP-LC retention time worked out at 1140 s.

The compound `CCC(CC)N1CCN(S(=O)(=O)c2cc(-c3[nH]ncc3C(=O)N(C)C)oc2C)CC1` came in with an RP-LC retention time of 577 s.

In turn, `CN(CCc1noc(-c2ccc(F)cc2)n1)C(=O)Nc1ccccc1F` gave an RP-LC retention time of 882 s.

`Cc1cc(C)cc(C(=O)Nc2cc(-c3ccccn3)no2)c1` showed an RP-LC retention time of 911 s.

In the case of `COc1ccc(C2CCCN2C(=O)c2cc(-c3ccco3)on2)cc1` (stereo not given), the RP-LC retention time turned out to be 961 s.

`Cc1ccc(F)cc1S(=O)(=O)N1CCC(n2cnnc2C(C)C)CC1` had an RP-LC retention time of 740 s.

On to `Cc1cc(C(=O)Nc2ccc3c(c2)N(S(=O)(=O)c2ccc(F)cc2)CCC3)c(C)o1`, for which the RP-LC retention time was determined as 1010 s.

Turning to `CCc1cc(=O)n(CC(=O)Nc2ccc(C)cc2)c(N)n1`, the RP-LC retention time was determined as 617 s.

Consider `Cc1ccc(S(=O)(=O)N2CCCC2c2nc(-c3cccc(F)c3)no2)cc1Cl` (stereo not given), for which the RP-LC retention time was 1230 s.

On to `Cc1ccc(NC(=O)c2ccco2)c(C(=O)c2ccccc2)c1`, for which the RP-LC retention time was determined as 995 s.

`COc1ccc(C2(C(=O)N3CCC(Cc4ccc(COc5ccncc5)cc4)CC3)CC2)cc1` yielded an RP-LC retention time of 750 s.

In the case of `CC(C)CN(CC(C)C)c1nc(-c2ccc(Cl)cc2)nc2ccccc12`, the RP-LC retention time was found to be 1130 s.

`CC(C)(C)c1noc(-c2ccc(=O)n(Cc3cccc(Cl)c3)n2)n1`: the RP-LC retention time was 1150 s.

In turn, `Cc1cc(C)cc(NC(=O)NC2CCN(c3ccccc3)C2=O)c1` (stereo not given) had an RP-LC retention time of 697 s.

`COc1ccc(Nc2c(-c3ccc(SC)cc3)nc3cnccn23)cc1`: the RP-LC retention time came out at 908 s.

With `O=C1NCCCn2cc(S(=O)(=O)Nc3ccccc3F)cc21`, the RP-LC retention time was 633 s.

`CCc1nnc([C@@H]2CC(F)(F)CN2C(=O)c2nccn2C)o1` gave an RP-LC retention time of 631 s.

On to `CCc1cccc(C)c1Nc1c(-c2cccc(O)c2)nc2ncccn12`, for which the RP-LC retention time turned out to be 730 s.

In turn, `CCc1ccc(NC(=O)Cn2nc(N3CCCC3)c3ccccc3c2=O)cc1` came in with an RP-LC retention time of 1030 s.

The compound `COc1cccc(CC(=O)N2CCc3nc[nH]c3C2)c1` registered an RP-LC retention time of 572 s.

For the compound `Cc1cccc(NC(=O)CCCCC(=O)O)n1`, the RP-LC retention time is 528 s.

The compound `O=C(NCC1CCCO1)c1c[nH]c2ncccc12` (stereo not given) had an RP-LC retention time of 589 s.

In the case of `COc1ccc(-c2noc(Cc3nc(-c4ccc(Br)cc4)cs3)n2)cc1OC`, the RP-LC retention time amounted to 1200 s.

Turning to `COC1CCOC2(CCN(C(=O)Nc3ccc4c(c3)OCCO4)CC2)C1` (stereo not given), the RP-LC retention time was 690 s.

Take `O=C(c1ccc(-c2cccs2)nc1)N1CCCCCC1`: the RP-LC retention time was 878 s.

Compound `Cc1ccc(CNC(=O)C2(C)CCN(S(=O)(=O)c3ccc(C)cc3C)CC2)cc1` registered an RP-LC retention time of 1040 s.

`CCC(C)NC(=O)Cn1c(=O)c2cnc(-c3ccc(C)cc3)nc2n(C)c1=O` (stereo not given): the RP-LC retention time was 920 s.

For `CCNC(=O)Cn1c(=O)c2cnc(-c3ccc(Cl)cc3)nc2n(C)c1=O`, the RP-LC retention time was found to be 927 s.

Take `Cc1nc(C)c(-c2ccc(SCC(=O)N3CCCc4ccccc43)nn2)s1`: the RP-LC retention time is 779 s.

Regarding `CCCCCC(CN1CCOCC1)C(=O)/C=C/c1ccccc1` (stereo not given), the RP-LC retention time turned out to be 748 s.

The compound `Cc1noc(/C=C\c2ccc(S(=O)(=O)N3CCN(C)CC3)cc2)c1NC(=O)C1CC1` gave an RP-LC retention time of 617 s.

For `CCOc1ccc(-c2noc(Cn3nc(-c4ccc(CC)cc4)ccc3=O)n2)cc1`, the RP-LC retention time came out at 597 s.

Turning to `Cc1ccc(NC(=O)C2CCN(S(C)(=O)=O)c3cc(C)ccc3O2)cc1` (stereo not given), the RP-LC retention time was determined as 976 s.

Turning to `CCc1cc(=O)n(CC(=O)Nc2cc(F)cc(F)c2)c(N2CCOCC2)n1`, the RP-LC retention time was 802 s.

`CS(=O)(=O)N1CCC(C(=O)N2CC3CC(C2)c2cccc(=O)n2C3)CC1` (stereo not given): the RP-LC retention time was 528 s.

In turn, `COC(=O)c1ccc(-c2nc3cnccn3c2Nc2ccc3c(c2)OCCO3)cc1` returned an RP-LC retention time of 813 s.

The compound `COCCn1cc(C(=O)Nc2cccc(Cl)c2)c2nn(-c3ccccc3)c(=O)c-2c1` registered an RP-LC retention time of 1050 s.

Compound `CC1CCN(S(=O)(=O)c2ccc3nn(Cc4cc(F)cc(F)c4)c(=O)n3c2)CC1` displayed an RP-LC retention time of 1040 s.

`CC1CCN(S(=O)(=O)c2ccc3c(c2)CCCC(=O)N3CC(=O)N2CCOCC2)CC1` showed an RP-LC retention time of 768 s.

`CCN(CC)c1nc2ccsc2c(=O)n1CCC(=O)N1CCN(c2ccccc2)CC1`: the RP-LC retention time is 919 s.

As to `Cc1ccc(-c2nc(-c3ccc(NS(=O)(=O)c4cccs4)cc3)no2)cc1F`, the RP-LC retention time amounted to 1180 s.

The compound `CS(=O)(=O)N1CCC(C(=O)NCC2CCN(C(=O)Nc3ccc(F)cc3)CC2)CC1` registered an RP-LC retention time of 622 s.

`COc1ccc(-c2nc3cc(C)ccn3c2NC(=O)c2ccc([N+](=O)[O-])cc2)cc1` showed an RP-LC retention time of 691 s.

As for `Cc1nnc(NC(=O)C2CCN(C(=O)c3cccc(F)c3)CC2)s1`, the RP-LC retention time came to 661 s.

The compound `CCc1nnc(-c2ccc(=O)n(CC(=O)Nc3ccc(C)cc3F)c2)o1` returned an RP-LC retention time of 692 s.

`N#CCCSc1ccccc1NC(=O)c1ccc(Cl)s1` came in with an RP-LC retention time of 908 s.

`Cc1ccccc1-c1noc(-c2cccn(CC(=O)N3CCCC3)c2=O)n1` registered an RP-LC retention time of 750 s.

Turning to `CCc1noc2nc(C)n(CC(=O)NCCc3ccc(C)cc3)c(=O)c12`, the RP-LC retention time is 851 s.

In turn, `O=C(NCc1cccnc1)C1c2ccccc2C(=O)N1CCc1ccc(Cl)cc1` (stereo not given) registered an RP-LC retention time of 668 s.

`Cc1ccc(S(=O)(=O)N2CCCC(C(=O)NCc3c(C)nc4sc(C)nn34)C2)cc1` (stereo not given) came in with an RP-LC retention time of 687 s.

On to `CC(C)N1CCC(c2nnc3n2CCN(S(=O)(=O)c2ccc(C(F)(F)F)cc2)C3)C1` (stereo not given), for which the RP-LC retention time was determined as 650 s.

The compound `O=C(CCC(=O)N1CC2CCCN2c2ccccc21)NCc1ccc2c(c1)OCO2` (stereo not given) returned an RP-LC retention time of 855 s.

As for `Cc1ccc(-c2cn3c(n2)N(C(=O)c2cnn4cccnc24)CCC3)cc1`, the RP-LC retention time amounted to 613 s.

`O=C(C1CCN(c2cnc3nccnc3c2)CC1)N1CCC2(CC1)OCCO2` had an RP-LC retention time of 620 s.

For `CCS(=O)(=O)N1CC(=O)N(c2cc(C)ccc2C)C(C)(C(=O)NC2CCCC2)C1` (stereo not given), the RP-LC retention time was 834 s.

The record behind these values is the METLIN SMRT retention time set (Domingo-Almenara et al. 2019).
